According to US7462345B2, “Radionuclide labeling of vitamin B12 and coenzymes thereof” (Mayo Foundation for Medical Education and Research, priority 1995, dated 2008):
Where “and” joins values, the source holds several entries; their conditions need not be identical. Equal values may be shown once.

What was measured:
transplanted sarcoma = test: Tumor imaging, mice with transplanted sarcoma, gamma well counting; format: in vivo; design: Fat activity, gamma well counting / Muscle activity, gamma well counting: unit not given here
Excerpt: All images for the in vivo studies were obtained on a GE 500 maxicamera using a LEAP collimator with a 20% window about the 140 keV energy peak of technetium, and a medium energy collimator with a 20% window about the 174 keV and 247 keV energy peaks of Indium. A 256×256 matrix with a dedicated pinnacle computer system was used to collect and analyze the data.

[1] = Gastrointestinal absorption after oral administration, modified Schillings test; format: in vivo, mice; design: Kidney activity, gamma well counting / Liver activity, gamma well counting / Pancreas activity, gamma well counting / Heart activity, gamma well counting / Spleen activity, gamma well counting: unit not given here
Method: B. Gastrointestinal Absorption: Methylcobalamin-b-(4-aminobutyl)-DTPA and DTPA alone were labeled as described above, with the exception that the 3 mCi Indium/300 μg/100 μl normal saline solutions were not diluted. […] The mice were sacrificed at 24 hrs, dissected, and studied as described above.
A modified Schillings test was performed on two mice. Specifically, each mouse received via subcutaneous and intraperitoneal administration, a 1000 μg loading dose of non-labeled methylcobalamin-b-(4-aminobutyl)amide-DTPA analogue. At 24 hrs, the mice were fed 2-3 drops of Indium-labeled methylcobalamin-b-(4-aminobutyl)amide-DTPA-complex. Urine and feces were collected from the three groups of mice after oral administration. The mice were sacrificed at 24 hours after ingestion of tracer and images and biodistribution data were obtained at that time.

[2] = Biodistribution in mice at 24 hours, gamma well counting; format: in vivo, Balb-C mice
[3] = pH of 1000 μg/10 ml normal saline solutions; format: physicochemical; settings: 1000 μg in 10 ml normal saline, no buffers, room temperature
Method: Under dim light, 1000 μg of the non-labeled methyl-, adenosyl-, and cyanocobalamin-b-(4-aminobutyl)amide-DTPA, as well as 1000 μg of cyanocobalamin and DTPA (Sigma, St. Louis, Mo. 63178), were separately dissolved in 10 ml of normal saline at room temperature. Each of the five 1000 μg/10 ml samples were stored in sealed, aluminum-Tapped 10 ml vials to prevent exposure to light. No buffers were added to the solutions. The pH of the solutions, measured by a Beckman 40 pH meter (Beckman Instruments, Fullerton, Calif.): Cyanocobalamin=5.75, DTPA=3.78; cyano, methyl and adenosylcobalamin-DTPA analogues were 5.75, 6.10, and 6.19, respectively.

Intrinsic Factor (IF) = test: modified intrinsic factor blocking antibody (IFBA) assay; format: binding
Method: (§1) Under dim light, 1000 μg of the non-labeled methyl-, adenosyl-, and cyanocobalamin-b-(4-aminobutyl)amide-DTPA, as well as 1000 μg of cyanocobalamin and DTPA (Sigma, St. Louis, Mo. 63178), were separately dissolved in 10 ml of normal saline at room temperature. Each of the five 1000 μg/10 ml samples were stored in sealed, aluminum-Tapped 10 ml vials to prevent exposure to light. No buffers were added to the solutions. The pH of the solutions, measured by a Beckman 40 pH meter (Beckman Instruments, Fullerton, Calif.): Cyanocobalamin=5.75, DTPA=3.78; cyano, methyl and adenosylcobalamin-DTPA analogues were 5.75, 6.10, and 6.19, respectively. To assess in vitro binding to Intrinsic Factor (IF) and Transcobalamins (TC), the intrinsic factor blocking antibody (IFBA) and Unsaturated vitamin B12 Binding Capacity (UBBC) assays were performed with serum randomly obtained from five patients being evaluated for pernicious anemia at the Mayo Clinic. The IFBA and UBBC assays were first performed for clinical purposes as previously described by V. F. Fairbanks et al., Mayo Clin. Proc., 58, 203 (1983); Intrinsic Factor Blocking Antibody [^57Co] Radioassay-Package insert, Diagnostic Products Corp.; D. Grossowicz et al., Proc. Exp. Biol. 109, 604 (1962) and C. Gottlieb et al., Blood 25, 6 (1965). Next, the serum from the same five patients underwent modified IFBA and UBBC assays. Specifically, 1 μl of the five previously described solutions were separately incubated with purified IF or serum, to potentially saturate all IF and TC binding sites. After incubation for 20 minutes at room temperature and for another 20 minutes at 4° C., 500 μl of the stock (1000 μg/l) Cobalt-57-cyanocobalamin (Mallinckrodt Medical. Inc., St. Louis, Mo. 63134) solution was added and the usual IFBA and UBBC protocols were then followed. All supernatant activity was counted for four minutes on a gamma counter (Micromedix 10/20, Huntsville, Ala. 35805).

Transcobalamins (TC) = test: modified Unsaturated vitamin B12 Binding Capacity (UBBC) assay; design: species or system human; settings: for UBBC supernatant counts: NSB = counts <100
Method: as §1

[4] = 500 μCi intraperitoneal, 24 hours, tumor mice 19-24
[5] = approximately 100 μCi tailvein injection, tumor mice 25-30
[6] = approximately 30 μCi orally, 24 hrs, mice 13-18
[7] = approximately 30 μCi orally, 24 hrs, mice 13-18, BKG = background
[8] = 500 μCi intraperitoneal, 24 hours, mice 1-6
[9] = 500 μCi subcutaneously, mice 7-12

## O=C([O-])CN(CCN(CC(=O)[O-])CC(=O)[O-])CCN(CC(=O)[O-])CC(=O)[O-].[111In+3].[H+].[H+] [DTPA-^111In]
Transplanted sarcoma; [4]
  Fat activity, gamma well counting: 13.7 and 17.9 and 19.2
  Heart activity, gamma well counting: 5.0 and 8.0 and 9.7
  Kidney activity, gamma well counting: 116.5 and 180.7 and 231.2
  Muscle activity, gamma well counting: 7.2 and 6.4 and 6.8
  Pancreas activity, gamma well counting: 7.1 and 11.3 and 13.9
  Tumor activity, gamma well counting: 52.8 and 69.3 and 73.1
Transplanted sarcoma; [5]
  Fat activity, gamma well counting: 0.93 and 0.75 and 0.79
  Heart activity, gamma well counting: 0.94 and 0.61 and 0.85
  Kidney activity, gamma well counting: 14.0 and 9.9 and 10.2
  Liver activity, gamma well counting: 1.6 and 1.3 and 1.4
  Lung activity, gamma well counting: 1.7 and 0.87 and 0.93
  Spleen activity, gamma well counting: 1.9 and 1.4 and 1.6
  Tumor activity, gamma well counting: 5.0 and 2.8 and 3.4
Transplanted sarcoma; mouse, in vivo
  concentration within the transplanted tumors, times less than that of adenosylcobalamin-DTPA-^111In: 10-20 times
[1]; [6]
  Kidney activity, gamma well counting: 0.64 and 0.54 and 0.59
  Liver activity, gamma well counting: 0.28 and 0.21 and 0.30
  Pancreas activity, gamma well counting: 0.93 and 0.96 and 0.61
  Spleen activity, gamma well counting: 0.62 and 0.67 and 0.48
[1]; [7]
  Fat activity, gamma well counting: <BKG
  Heart activity, gamma well counting: <BKG
  Lung activity, gamma well counting: <BKG
  Muscle activity, gamma well counting: <BKG
[1]; oral
  activity in the heart, lungs, muscle, or fat tissue samples: No activity was detected
  radioactivity in urine and stool: detected in urine and stool by two hours
[1]; oral administration, mice
  absorption from the gastrointestinal tract: also absorbed from the gastrointestinal tract, but to a lesser degree
[2]; [8]
  Fat activity, gamma well counting: 12.6 and 19.5 and 18.8
  Heart activity, gamma well counting: 10.3 and 6.9 and 12.5
  Liver activity, gamma well counting: 56.9 and 41.5 and 66.1
  Lung activity, gamma well counting: 6.2 and 6.0 and 10.5
  Muscle activity, gamma well counting: 5.4 and 5.6 and 5.0
  Pancreas activity, gamma well counting: 13.4 and 13.0 and 14.1
[2]; [9]
  Heart activity, gamma well counting: 5.6 and 5.0 and 4.8
  Kidney activity, gamma well counting: 119.4 and 117.3 and 110.1
  Liver activity, gamma well counting: 24.0 and 25.5 and 23.2
  Lung activity, gamma well counting: 5.4 and 5.3 and 5.0
  Pancreas activity, gamma well counting: 6.0 and 6.7 and 5.9
  Spleen activity, gamma well counting: 19.5 and 19.0 and 18.1
[2]; mouse, in vivo
  activity per organ or tissue sample, times less when compared to the methyl and adenosylcobalamin analogs: 5-12 times

## CC1=C2N=C(C=C3N=C(C(C)=C4[N-]C(C(CC(N)=O)C4(C)CCC(=O)NCC(C)OP(=O)([O-])OC4C(CO)OC(n5cnc6cc(C)c(C)cc65)C4O)C4(C)N=C1C(CCC(=O)NCCCCNC(=O)CN(CCN(CCN(CC(=O)O)CC(=O)O)CC(=O)O)CC(=O)O)C4(C)CC(N)=O)C(CCC(N)=O)C3(C)C)C(CCC(N)=O)C2(C)CC(N)=O.[CH3-].[Co+3] (centres unmarked) [MEB12DTPA, methylcobalamin-b-(4-aminobutyl)-amide-DTPA]
[3]
  pH of the solution: 6.10
Intrinsic Factor (IF); PT 1, Clinical Run 11942.5
  IFBA supernatant counts: 4279 counts
Intrinsic Factor (IF); PT 1, negative <1.11, positive (binding to IF) >1.43, indeterminate 1.11-1.43
  IFBA value (in parentheses): (2.77)
Intrinsic Factor (IF); PT 2, Clinical Run 11656
  IFBA supernatant counts: 4082 counts
Intrinsic Factor (IF); PT 2, negative <1.11, positive >1.43
  IFBA value (in parentheses): (2.92)
Intrinsic Factor (IF); PT 3, Clinical Run 11780
  IFBA supernatant counts: 4456.5 counts
Intrinsic Factor (IF); PT 3, negative <1.11, positive >1.43
  IFBA value (in parentheses): (2.66)
Intrinsic Factor (IF); PT 4, Clinical Run 11617
  IFBA supernatant counts: 4414 counts
Intrinsic Factor (IF); PT 4, negative <1.11, positive >1.43
  IFBA value (in parentheses): (2.69)
Intrinsic Factor (IF); PT 5, Clinical Run 11653.5
  IFBA supernatant counts: 4381.5 counts
Intrinsic Factor (IF); PT 5, negative <1.11, positive >1.43
  IFBA value (in parentheses): (2.77)
Intrinsic Factor (IF); average of five patients, estimated from counts vs Clinical run
  averaged percent binding to IF: 63.2%
Transcobalamins (TC); average of five patients
  averaged percent binding to the transcobalamin proteins: 94.0%
Transcobalamins (TC); serum PT 1, preincubated with 1 μl of 1000 μg/10 ml solution, then Co-57-cyanocobalamin, Clinical Run 741
  UBBC supernatant counts: 17.1 counts
Transcobalamins (TC); serum PT 2, Clinical Run 632
  UBBC supernatant counts: 26.8 counts
Transcobalamins (TC); serum PT 3, Clinical Run 2097
  UBBC supernatant counts: 278.9 counts
Transcobalamins (TC); serum PT 4, Clinical Run 1378
  UBBC supernatant counts: 60.9 counts
Transcobalamins (TC); serum PT 5, Clinical Run 1682
  UBBC supernatant counts: 91.1 counts
